Common to all, as to test: Determination of the bactericidal activity (logarithmic reduction in organism count)
Common to all, as to settings: contact for 30 minutes at a substance concentration of 120 μg/mL

The subject of assay [1] is S. choleraesuis ATCC 10708. It counts as cell-based, Salmonella choleraesuis. The procedure: (§1) Determination of the Bactericidal Activity of Selected Compounds
(§2) Casein-soybean flour-peptone broth for preparation of pre-cultures of test bacteria
(§3) Examples of Test Organisms:
(§4) • Staphylococcus aureus ATCC 6538 • Escherichia coli ATCC 10536 • Salmonella choleraesuis ATCC 10708 Procedure:
(§5) The test substances are dissolved in dimethyl sulfoxide (DMSO) and tested in a concentration of 120 μg/ml.
(§6) Bacteria are incubated overnight in CASO broth and adjusted to an organism count of 1–5×10^5 CFU/ml using 0.85% sodium chloride solution.
(§7) The test substances are pre-pipetted into microtitre plates in amounts of 8 μl per well.
(§8) The adjusted test organism suspensions are added in amounts of 192 μl per well to the test substances and mixed. After defined contact times, the test batches are mixed, an aliquot is withdrawn and diluted in several steps in a dilution series of 1:10 in a suitable inactivation medium.
The test plates are incubated for 24 hours at 37° C. […]
(§9) One microtitre plate is used for each test organism.
(§10) All the substances are tested in duplicate.

For a further assay, the system named is S. aureus ATCC 6538. It counts as cell-based, Staphylococcus aureus. The procedure:
as §1, §2, §3, §4, §5, §6, §7, §8
The test plates are incubated for 24 hours at 37° C.
After incubation, the growth is determined on the basis of the turbidity of the test batches (optical density) at 620 nm in a microplate reader.
as §9, §10

The next assay relates to E. coli NCTC 8196. In kind it is cell-based, Escherichia coli.

As for `CCc1c(C)nc(-c2ccccn2)nc1NCCCCCCCCCCCCN` [Compound of formula 7], the “Logarithmic reduction in organism count, S. choleraesuis ATCC 10708” value in assay [1] is under 1 log. Further, the “Logarithmic reduction in organism count, S. aureus ATCC 6538” value in the assay on S. aureus ATCC 6538 came out at 2 log. Moreover, in the assay on E. coli NCTC 8196, the “Logarithmic reduction in organism count, E. coli NCTC 8196” value was “≦1 log”.
Take `CCCCCCCCNc1nc(-c2ccccn2)nc(C)c1CC` [Compound of formula 9]: in assay [1], the “Logarithmic reduction in organism count, S. choleraesuis ATCC 10708” value was under 1 log. Further, the “Logarithmic reduction in organism count, S. aureus ATCC 6538” value in the assay with S. aureus ATCC 6538 is given as under 1 log. Besides, the “Logarithmic reduction in organism count, E. coli NCTC 8196” value with E. coli NCTC 8196 is recorded as under 1 log.
On to `CCCCCCCCCNc1nc(-c2ccccn2)nc(C)c1CC` [Compound of formula 10], for which, in assay [1], the “Logarithmic reduction in organism count, S. choleraesuis ATCC 10708” value is recorded as under 1 log. Also, in the assay with S. aureus ATCC 6538, the “Logarithmic reduction in organism count, S. aureus ATCC 6538” value is 1–2 log. Further, the “Logarithmic reduction in organism count, E. coli NCTC 8196” value in the assay on E. coli NCTC 8196 is under 1 log.
Take `CCCCCCCCCCNc1nc(-c2ccccn2)nc(C)c1CC` [Compound of formula 11]: the “Logarithmic reduction in organism count, S. choleraesuis ATCC 10708” value in assay [1] is under 1 log. For the same molecule, the “Logarithmic reduction in organism count, S. aureus ATCC 6538” value in the assay on S. aureus ATCC 6538 was 1–2 log. Also, the “Logarithmic reduction in organism count, E. coli NCTC 8196” value in the assay with E. coli NCTC 8196 is “≦1 log”.
Turning to `CCCCCCCCCCCCNc1nc(-c2ccccn2)nc(C)c1CC` [Compound of formula 12], in assay [1], the “Logarithmic reduction in organism count, S. choleraesuis ATCC 10708” value was under 1 log. Besides, the “Logarithmic reduction in organism count, S. aureus ATCC 6538” value in the assay with S. aureus ATCC 6538 was 1–2 log. Further, the “Logarithmic reduction in organism count, E. coli NCTC 8196” value in the assay on E. coli NCTC 8196 is listed as under 1 log.
Take `Cc1cc(NCCCCCCCCCN)nc(-c2ccccn2)n1` [Compound of formula 18]: the “Logarithmic reduction in organism count, S. choleraesuis ATCC 10708” value in assay [1] is listed as under 1 log. The “Logarithmic reduction in organism count, S. aureus ATCC 6538” value with S. aureus ATCC 6538 was found to be 1 log. The “Logarithmic reduction in organism count, E. coli NCTC 8196” value in the assay on E. coli NCTC 8196 was under 1 log.
For the molecule `Cc1cc(NCCCCCCCCCCCCN)nc(-c2ccccn2)n1` [Compound of formula 19], the “Logarithmic reduction in organism count, S. choleraesuis ATCC 10708” value in assay [1] is reported as under 1 log. The “Logarithmic reduction in organism count, S. aureus ATCC 6538” value with S. aureus ATCC 6538 is 2–3 log. Further, in the assay on E. coli NCTC 8196, the “Logarithmic reduction in organism count, E. coli NCTC 8196” value is on record as “≦1 log”.
Regarding `CCCCCCCCNc1cc(C)nc(-c2ccccn2)n1` [Compound of formula 21], the “Logarithmic reduction in organism count, S. choleraesuis ATCC 10708” value in assay [1] is under 1 log. In addition, in the assay with S. aureus ATCC 6538, the “Logarithmic reduction in organism count, S. aureus ATCC 6538” value is recorded as 1–2 log. Also, in the assay on E. coli NCTC 8196, the “Logarithmic reduction in organism count, E. coli NCTC 8196” value is given as under 1 log.
As to `CCCCCCCCCNc1cc(C)nc(-c2ccccn2)n1` [Compound of formula 22], the “Logarithmic reduction in organism count, S. choleraesuis ATCC 10708” value in assay [1] was under 1 log. In the assay with S. aureus ATCC 6538, the “Logarithmic reduction in organism count, S. aureus ATCC 6538” value was 1–2 log. The “Logarithmic reduction in organism count, E. coli NCTC 8196” value in the assay with E. coli NCTC 8196 is given as under 1 log.
Consider `CCCCCCCCCCNc1cc(C)nc(-c2ccccn2)n1` [Compound of formula 23], for which the “Logarithmic reduction in organism count, S. choleraesuis ATCC 10708” value in assay [1] is listed as under 1 log. Further, the “Logarithmic reduction in organism count, S. aureus ATCC 6538” value in the assay with S. aureus ATCC 6538 was 3 log. Further, the “Logarithmic reduction in organism count, E. coli NCTC 8196” value in the assay with E. coli NCTC 8196 is reported as under 1 log.
With `CCCCCCCCCCCCNc1cc(C)nc(-c2ccccn2)n1` [Compound of formula 24], the “Logarithmic reduction in organism count, S. choleraesuis ATCC 10708” value in assay [1] is under 1 log. Besides, the “Logarithmic reduction in organism count, S. aureus ATCC 6538” value in the assay on S. aureus ATCC 6538 is recorded as 2 log. Moreover, the “Logarithmic reduction in organism count, E. coli NCTC 8196” value in the assay on E. coli NCTC 8196 was “≦1 log”.
In the same order, the values of `NCCCCCCCCCNc1cc(C(F)(F)F)nc(-c2ccccn2)n1` [Compound of formula 30] are “≦1 log”, “≦1 log” and under 1 log.
For `CCCCCCCNc1cc(C(F)(F)F)nc(-c2ccccn2)n1` [Compound of formula 32], the “Logarithmic reduction in organism count, S. choleraesuis ATCC 10708” value in assay [1] was “≦1 log”. The “Logarithmic reduction in organism count, S. aureus ATCC 6538” value in the assay on S. aureus ATCC 6538 is under 1 log. Further, in the assay on E. coli NCTC 8196, the “Logarithmic reduction in organism count, E. coli NCTC 8196” value is reported as under 1 log.
With `CCCCCCCCNc1cc(C(F)(F)F)nc(-c2ccccn2)n1` [Compound of formula 33], in assay [1], the “Logarithmic reduction in organism count, S. choleraesuis ATCC 10708” value is under 1 log. In addition, the “Logarithmic reduction in organism count, S. aureus ATCC 6538” value in the assay with S. aureus ATCC 6538 is reported as under 1 log. The “Logarithmic reduction in organism count, E. coli NCTC 8196” value in the assay with E. coli NCTC 8196 was under 1 log.
Regarding `CCCCCCCCCNc1cc(C(F)(F)F)nc(-c2ccccn2)n1` [Compound of formula 34], in assay [1], the “Logarithmic reduction in organism count, S. choleraesuis ATCC 10708” value is reported as under 1 log. For the same molecule, the “Logarithmic reduction in organism count, S. aureus ATCC 6538” value in the assay on S. aureus ATCC 6538 is given as under 1 log. In addition, the “Logarithmic reduction in organism count, E. coli NCTC 8196” value with E. coli NCTC 8196 was under 1 log.
In the case of `CCCCCCCCCCNc1cc(C(F)(F)F)nc(-c2ccccn2)n1` [Compound of formula 35], in assay [1], the “Logarithmic reduction in organism count, S. choleraesuis ATCC 10708” value is under 1 log. Moreover, in the assay on S. aureus ATCC 6538, the “Logarithmic reduction in organism count, S. aureus ATCC 6538” value is given as under 1 log. The “Logarithmic reduction in organism count, E. coli NCTC 8196” value in the assay with E. coli NCTC 8196 is recorded as under 1 log.
For `CCCCCCCCCCCCCCCCNc1cc(C(F)(F)F)nc(-c2ccccn2)n1` [Compound of formula 37], in assay [1], the “Logarithmic reduction in organism count, S. choleraesuis ATCC 10708” value is under 1 log. In the assay on S. aureus ATCC 6538, the “Logarithmic reduction in organism count, S. aureus ATCC 6538” value was 1–2 log. Further, the “Logarithmic reduction in organism count, E. coli NCTC 8196” value with E. coli NCTC 8196 was under 1 log.
Turning to `CC(C)c1cc(NCCCCCCCCCN)nc(-c2ccccn2)n1` [Compound of formula 42], the “Logarithmic reduction in organism count, S. choleraesuis ATCC 10708” value in assay [1] is under 1 log. In the assay with S. aureus ATCC 6538, the “Logarithmic reduction in organism count, S. aureus ATCC 6538” value is listed as 2 log. Moreover, the “Logarithmic reduction in organism count, E. coli NCTC 8196” value in the assay on E. coli NCTC 8196 is “≦1 log”.
`CC(C)c1cc(NCCCCCCCCCCCCN)nc(-c2ccccn2)n1` [Compound of formula 43]: the “Logarithmic reduction in organism count, S. choleraesuis ATCC 10708” value in assay [1] was under 1 log. Moreover, the “Logarithmic reduction in organism count, S. aureus ATCC 6538” value in the assay on S. aureus ATCC 6538 is reported as 3 log. The “Logarithmic reduction in organism count, E. coli NCTC 8196” value in the assay on E. coli NCTC 8196 was under 1 log.
For the molecule `CCCCCCCNc1cc(C(C)C)nc(-c2ccccn2)n1` [Compound of formula 44], the “Logarithmic reduction in organism count, S. choleraesuis ATCC 10708” value in assay [1] is under 1 log. The “Logarithmic reduction in organism count, S. aureus ATCC 6538” value in the assay on S. aureus ATCC 6538 was 1–2 log. Moreover, in the assay on E. coli NCTC 8196, the “Logarithmic reduction in organism count, E. coli NCTC 8196” value is under 1 log.
As to `CCCCCCCCNc1cc(C(C)C)nc(-c2ccccn2)n1` [Compound of formula 45], the “Logarithmic reduction in organism count, S. choleraesuis ATCC 10708” value in assay [1] is listed as under 1 log. For the same molecule, in the assay on S. aureus ATCC 6538, the “Logarithmic reduction in organism count, S. aureus ATCC 6538” value is 1–2 log. Further, the “Logarithmic reduction in organism count, E. coli NCTC 8196” value with E. coli NCTC 8196 is listed as under 1 log.
On to `CCCCCCCCCNc1cc(C(C)C)nc(-c2ccccn2)n1` [Compound of formula 46], for which the “Logarithmic reduction in organism count, S. choleraesuis ATCC 10708” value in assay [1] was under 1 log. Besides, in the assay on S. aureus ATCC 6538, the “Logarithmic reduction in organism count, S. aureus ATCC 6538” value was “≦1 log”. The “Logarithmic reduction in organism count, E. coli NCTC 8196” value with E. coli NCTC 8196 is under 1 log.
Turning to `CCCCCCCCCCNc1cc(C(C)C)nc(-c2ccccn2)n1` [Compound of formula 47], the “Logarithmic reduction in organism count, S. choleraesuis ATCC 10708” value in assay [1] was under 1 log. In the assay on S. aureus ATCC 6538, the “Logarithmic reduction in organism count, S. aureus ATCC 6538” value was determined as 1 log. Further, the “Logarithmic reduction in organism count, E. coli NCTC 8196” value in the assay on E. coli NCTC 8196 is given as under 1 log.
In the case of `CCCCCCCCCCCCNc1cc(C(C)C)nc(-c2ccccn2)n1` [Compound of formula 48], in assay [1], the “Logarithmic reduction in organism count, S. choleraesuis ATCC 10708” value is given as under 1 log. In the assay with S. aureus ATCC 6538, the “Logarithmic reduction in organism count, S. aureus ATCC 6538” value was 1 log. Further, the “Logarithmic reduction in organism count, E. coli NCTC 8196” value in the assay on E. coli NCTC 8196 is listed as under 1 log.
`CCCCCCCCNc1cc(C(C)(C)C)nc(-c2ccccn2)n1` [Compound of formula 57]: in assay [1], the “Logarithmic reduction in organism count, S. choleraesuis ATCC 10708” value was under 1 log. Besides, the “Logarithmic reduction in organism count, E. coli NCTC 8196” value with E. coli NCTC 8196 is listed as under 1 log.

Values taken from patent US7015228B2, “4-amino-2-(2-pyridyl)pyrimidines as microbicidal active substances” (Ciba Specialty Chemicals Corporation, priority 2001, dated 2006).
